# Read-outs that look alike come from different tables or passages of the source.
# Columns and labels:
# [1] = test system: T24 human bladder carcinoma xenograft; assay: In vivo anti-tumor potential, xenograft model (tumor volume, TGI, %T/C, body weight, survival); details: 5 mg/kg, weekly once
# Protocol: (§1) In vivo anti-tumor potential of compound of Formula 16 was evaluated using T24 human bladder carcinoma xenograft model in mice by assessing biological endpoints such as tumor growth and tumor growth inhibition.
# (§2) Thirty-five healthy female nude mice bearing T24 tumor with volume of ˜100 mm3 were selected, randomized and allocated into five groups (G1-G5, n=7 animals per group). Body weight of each mouse was recorded on the day of randomization and daily till the end of the study. The tumor size was measured weekly twice from the day of test item/reference drug/vehicle dosing till the end of the experiment. Tumor size was measured by digital caliper (MITUTOYO, Japan) by measuring length and width. Body weight and tumor volume data was statistically analysed using two-way ANOVA (Bonferroni Test). Statistical analysis was conducted using PRISM software, version 5.01.p values of <0.05 were considered as statistically significant. Percentage survival proportions were analyzed by “Kaplan Meier” method.
# [2] = test system: T24 human bladder carcinoma xenograft; assay: Histopathological investigation of tumour tissue; assay type: in vivo, mice; details: 5 mg/kg, weekly once
# Protocol: (§9) Effect of compound of Formula 16 was evaluated using T24 human bladder carcinoma xenograft model.
# [3] = test system: T24 human bladder carcinoma xenograft; assay: Effect on immune system (Th1 cytokines, IgM) in xenograft model; assay type: in vivo, mice
# Protocol: as §9
# [4] = test system: T24 human bladder carcinoma xenograft; assay: In vivo anti-tumor potential, T24 human bladder carcinoma xenograft model in female nude mice; details: G2, 5 mg/kg, Weekly once
# Protocol: as §1, §2
# [5] = test system: T24 human bladder carcinoma xenograft; assay: Histopathological investigation of tumour tissue, T24 xenograft model; assay type: in vivo, human T24 tumor in nude mice; details: G2, 5 mg/kg, Weekly once; 'Moderately Differentiated' wrapped over two lines
# Protocol: as §9
# Th1 cytokines; IgM = assay: Effect on immune system (Th1 cytokines, IgM), T24 xenograft model; assay type: in vivo, mice
# Protocol: as §9
# [6] = Cytotoxic effect by MTT assay, 48 h; details: human
# Protocol: (§3) Cells were treated with Test Items at various concentrations (0.0001 μM-10 μM) for 48 h. The cells corresponding to Positive Control group were treated with Doxorubicin at a concentration ranging from 0.1 μM-100 μM. The Untreated cells were used as Control. After 48 h of incubation, the effect of Test Items on cytotoxicity of cells was determined by MTT assay, the plates were taken out and 20 μl of 5 mg/m1 of MTT 3-(4,5-dimethythiazol-2-yl)-2,5-diphenyl tetrazolium bromide solution was added to all the wells. Cells were incubated for 3 h at 37° C. The supernatant was aspirated. 150 μl of DMSO was added to each well to dissolve formazan crystals. The absorbance of each well was then read at 540 nm using Synergy HT micro plate reader.
# (§4) The % Cytotoxicity was calculated using the formula:
# (§5) Where, X=Absorbance of cells treated with Test Item; R=Absorbance of Control cells (Untreated cells maintained in growth medium only).
# (§6) Selectivity Index was calculated using the formula:
# (§7) SI=IC50 in Normal cell/IC50 in cancer cell.
# (§8) Activity scores of the Selective Index values were categorized as: • Not selective (SI value ≤1) • Moderately selective (1<SI value <5) • Selective (SI value ≥5)
# AGS Stomach = assay: Cytotoxic effect by MTT assay, 48 h; details: 48 h
# Protocol: as §3, §4, §5, §6, §7, §8
# HT29 Colon = assay: Cytotoxic effect by MTT assay, 48 h; details: Homo sapiens, HT-29, 48 h
# Protocol: as §3, §4, §5, §6, §7, §8
# KB Cervix = assay: Cytotoxic effect by MTT assay, 48 h; details: 48 h
# Protocol: as §3, §4, §5, §6, §7, §8
# MDA-MB-231 Breast = assay: Cytotoxic effect by MTT assay, 48 h; details: Homo sapiens, MDA-MB-231, 48 h
# Protocol: as §3, §4, §5, §6, §7, §8
# MG-63 Bone = assay: Cytotoxic effect by MTT assay, 48 h; details: Homo sapiens, MG-63, 48 h
# Protocol: as §3, §4, §5, §6, §7, §8
# PA-1 Ovary = assay: Cytotoxic effect by MTT assay, 48 h; details: 48 h
# Protocol: as §3, §4, §5, §6, §7, §8
# PANC-1 Pancreatic = assay: Cytotoxic effect by MTT assay, 48 h; details: Homo sapiens, PANC-1, 48 h, read-out: IC50 Values
# Protocol: as §3, §4, §5, §6, §7, §8
# T24 Bladder = assay: Cytotoxic effect by MTT assay, 48 h; details: Homo sapiens, 48 h
# Protocol: as §3, §4, §5, §6, §7, §8
# U251 MG Brain = assay: Cytotoxic effect by MTT assay, 48 h; details: Homo sapiens, U-251, 48 h
# Protocol: as §3, §4, §5, §6, §7, §8
# [7] = Cytotoxic effect by MTT assay, 48 h; details: human; remark: listed apart in the source
# Protocol: as §3, §4, §5, §6, §7, §8
# A549 Lungs = assay: Cytotoxic effect by MTT assay, 48 h; details: Homo sapiens, A549, 48 h, read-out: IC50 Values
# Protocol: as §3, §4, §5, §6, §7, §8
# [8] = Cytotoxic effect by MTT assay, 48 h
# Protocol: as §3, §4, §5
# PBMC Normal = assay: Cytotoxic effect by MTT assay, 48 h; details: PBMC, 48 h, read-out: IC50 Values
# Protocol: as §3, §4, §5
# [9] = read-out: Percent cytotoxicity wrt control
compound,measurement,setting,value
N.N.[Cl][Pt][Cl] [Cisplatin],Percent survival,[1],100%
same,Tumor growth delay,[1],10.5 days
same,Percent T/C Day 22,[1]; Day 22,59.18%
same,Percent TGI Day 22,[1]; Day 22,40.82%
same,Tumor volume Day 22,[1]; Day 22,622.6 cu · mm
same,Percent body weight change Day 22,"[1]; Day 22, nude mice bearing T24 tumor",6.3%
same,Apoptosis,[2],Mild
same,Grade,[2],2 (Grade 2 (Moderately Differentiated) - <25-50% cells anaplastic)
same,Grade (differentiation in words),[2],Moderately
same,Immunoglobulins IgG,"[3]; 5 mg/kg, i.p. (q7dX2)",54 ng/mL
same,Immunoglobulins IgM,"[3]; 5 mg/kg, i.p. (q7dX2)",18 ng/mL
same,Th1 cytokines IFN gamma,"[3]; 5 mg/kg, i.p. (q7dX2)",80.8 pg/mL
same,Th1 cytokines IL-2,"[3]; 5 mg/kg, i.p. (q7dX2)",259.3 pg/mL
same,Th2 cytokines IL-4,"[3]; 5 mg/kg, i.p. (q7dX2)",60 pg/mL
same,Th2 cytokines IL-10,"[3]; 5 mg/kg, i.p. (q7dX2)",BLQ
same,IgM level,"[3]; mouse, in vivo",reduction in IgM
same,Percent T/C Day 22 (Test/Control),[4],59.18%
same,Percent TGI Day 22 (Tumor Growth Inhibition),[4],40.82%
same,Grade (differentiation),[5],Moderately
same,IFN gamma (Th1 cytokine),"Th1 cytokines; IgM; G2, 5 mg/kg, i.p. (q7dX2)",80.8 pg/mL
same,IL-2 (Th1 cytokine),"Th1 cytokines; IgM; G2, 5 mg/kg, i.p. (q7dX2)",259.3 pg/mL
same,IL-4 (Th2 cytokine),"Th1 cytokines; IgM; G2, 5 mg/kg, i.p. (q7dX2)",60 pg/mL
same,IL-10 (Th2 cytokine),"Th1 cytokines; IgM; G2, 5 mg/kg, i.p. (q7dX2)",BLQ
same,IgG,"Th1 cytokines; IgM; G2, 5 mg/kg, i.p. (q7dX2)",54 ng/mL
same,IgM,"Th1 cytokines; IgM; G2, 5 mg/kg, i.p. (q7dX2)",18 ng/mL
same,IgM,Th1 cytokines; IgM; T24 xenograft model,reduction in IgM
COc1cccc2c1C(=O)c1c(O)c3c(c(O)c1C2=O)C[C@@](O)(C(=O)CO)C[C@@H]3O[C@H]1C[C@H](N)[C@H](O)[C@H](C)O1 [Doxorubicin],"cytotoxicity at 48 h, 0.1 µM",[6],-3.4%
same,IC50,AGS Stomach; read-out: IC50 Values,4.3 µM
same,cytotoxicity at 0.1 µM,AGS Stomach; [9],15.6%
same,cytotoxicity at 1 µM,AGS Stomach; [9],72.4%
same,cytotoxicity at 10 µM,AGS Stomach; [9],74.5%
same,cytotoxicity at 50 µM,AGS Stomach; [9],74.8%
same,cytotoxicity at 100 µM,AGS Stomach; [9],79%
same,IC50,HT29 Colon; read-out: IC50 Values,35.3 µM
same,cytotoxicity at 0.1 µM,HT29 Colon; [9],3.2%
same,cytotoxicity at 1 µM,HT29 Colon; [9],1.7%
same,cytotoxicity at 10 µM,HT29 Colon; [9],32.7%
same,cytotoxicity at 50 µM,HT29 Colon; [9],61.9%
same,cytotoxicity at 100 µM,HT29 Colon; [9],59.8%
same,IC50,KB Cervix; read-out: IC50 Values,0.6 µM
same,cytotoxicity at 0.1 µM,KB Cervix; [9],28.7%
same,cytotoxicity at 1 µM,KB Cervix; [9],53.1%
same,cytotoxicity at 10 µM,KB Cervix; [9],95.7%
same,cytotoxicity at 50 µM,KB Cervix; [9],91.7%
same,cytotoxicity at 100 µM,KB Cervix; [9],84.2%
same,IC50,MDA-MB-231 Breast; read-out: IC50 Values,2.1 µM
same,cytotoxicity at 0.1 µM,MDA-MB-231 Breast; [9],3.4%
same,cytotoxicity at 1 µM,MDA-MB-231 Breast; [9],68%
same,cytotoxicity at 10 µM,MDA-MB-231 Breast; [9],74.3%
same,cytotoxicity at 50 µM,MDA-MB-231 Breast; [9],71.3%
same,cytotoxicity at 100 µM,MDA-MB-231 Breast; [9],58%
same,IC50,MG-63 Bone; read-out: IC50 Values,0.4 µM
same,cytotoxicity at 0.1 µM,MG-63 Bone; [9],35.3%
same,cytotoxicity at 1 µM,MG-63 Bone; [9],60.7%
same,cytotoxicity at 10 µM,MG-63 Bone; [9],82%
same,cytotoxicity at 50 µM,MG-63 Bone; [9],85.5%
same,cytotoxicity at 100 µM,MG-63 Bone; [9],75.5%
same,IC50,PA-1 Ovary; read-out: IC50 Values,1 µM
same,cytotoxicity at 0.1 µM,PA-1 Ovary; [9],19.6%
same,cytotoxicity at 1 µM,PA-1 Ovary; [9],62.6%
same,cytotoxicity at 10 µM,PA-1 Ovary; [9],73.2%
same,cytotoxicity at 50 µM,PA-1 Ovary; [9],79%
same,cytotoxicity at 100 µM,PA-1 Ovary; [9],71.5%
same,IC50,PANC-1 Pancreatic,8.2 µM
same,IC50,T24 Bladder; read-out: IC50 Values,5.5 µM
same,cytotoxicity at 0.1 µM,T24 Bladder; [9],21%
same,cytotoxicity at 1 µM,T24 Bladder; [9],34.8%
same,cytotoxicity at 10 µM,T24 Bladder; [9],72.8%
same,cytotoxicity at 50 µM,T24 Bladder; [9],66.6%
same,cytotoxicity at 100 µM,T24 Bladder; [9],52.7%
same,IC50,U251 MG Brain; read-out: IC50 Values,8.1 µM
same,cytotoxicity at 0.1 µM,U251 MG Brain; [9],-13.5%
same,cytotoxicity at 1 µM,U251 MG Brain; [9],41.7%
same,cytotoxicity at 10 µM,U251 MG Brain; [9],57.9%
same,cytotoxicity at 50 µM,U251 MG Brain; [9],71%
same,cytotoxicity at 100 µM,U251 MG Brain; [9],65.6%
same,"cytotoxicity at 48 h, 0.1 µM",[7],3.3%
same,IC50,A549 Lungs,11 µM
same,"cytotoxicity at 48 h, 0.1 µM",[8],5.3%
same,"cytotoxicity at 48 h, 1 µM",[8],29.3%
same,"cytotoxicity at 48 h, 10 µM",[8],37.4%
same,"cytotoxicity at 48 h, 50 µM",[8],40.5%
same,"cytotoxicity at 48 h, 100 µM",[8],37.1%
same,IC50,PBMC Normal,> 100 µM

# From US20250302974A1, “LECTIN-DRUG CONJUGATES” (UNICHEM LABORATORIES LIMITED, priority 2021, published 2025)
